Measured values taken from patent publication US20160122406A1, “ANALOGS OF PITUITARY ADENYLATE CYCLASE-ACTIVATING POLYPEPTIDE (PACAP) AND METHODS FOR THEIR USE” (THE ADMINISTRATORS OF THE TULANE EDUCATIONAL FUND, priority 2013, published 2016).
“Also recorded” adds a separate entry of the source. Square brackets hold non-standard residues; d marks the D form. * marks the point of attachment. Iac = imidazole-4-acrylic acid, O=C(/C=C/c1c[nH]cn1)*; Acetyl(2-(4-imidazolyl)) = O=C(Cc1c[nH]cn1)*

Tested on: Male Sprague-Dawley rats
Experiment: Arterial blood pressure and heart rate after intravenous injection in anesthetized rats
Format: in vivo
Details: 10 micrograms i.v.; for change in arterial blood pressure / change in arterial pulse pressure: isoflurane-anesthetized rats; for heart rate before intravenous injection: the 'from' value; for heart rate after intravenous injection: the 'to' value
Excerpt: FIG. 9 is a graph showing the changes in arterial blood pressure caused by [Iaa^1]PACAP38, [Iaa^1,D-Ser^2]PACAP38, [Iaa^1,Ala^22]PACAP38, and [Iaa^1,D-Ser^2,Ala^22]PACAP38. Male Sprague-Dawley rats (300-325 g) were anesthetized with 5% isoflurane for induction and then intubated. The rats were then ventilated (Hallowell EMC) with 100% O2 and 1-2% isoflurane. A PE-50 cannula was then placed in the femoral artery and connected to a pressure transducer. The arterial pressure signal was sent to an electronic chart recorder (BioPac). Heart rate was electronically derived from the arterial pressure signal. A similar PE-50 cannula was also placed in the femoral vein to allow for intravenous injection of the test peptides. Ten micrograms of the test peptides were injected intravenously in 100 μl of 0.9% NaCl in a random order and the cannula was immediately flushed with 100 μl of 0.9% NaCl. Changes in blood pressure and heart rate were calculated from the electronic record. […] Intravenous injection of [Iaa1]PACAP38 or [Iaa1,Ala22]PACAP38 also produced an increase in the heart rate from 378 bpm to 425 bpm or from 415 bpm to 440 bpm, respectively.
FIG. 10 is a graph showing the changes in arterial blood pressure caused by [Iac^1]PACAP38, [Iac^1,Ala^22]PACAP38, [Iac^1,D-Ser^2,Ala^22]PACAP38, and [Iaa^1,Ala^16,17,D-Lys^38]PACAP38. Male Sprague-Dawley rats (300-325 g) were anesthetized with 5% isoflurane for induction and then intubated. The rats were then ventilated (Hallowell EMC) with 100% O2 and 1-2% isoflurane. A PE-50 cannula was then placed in the femoral artery and connected to a pressure transducer. The arterial pressure signal was sent to an electronic chart recorder (BioPac). Heart rate was electronically derived from the arterial pressure signal. A similar PE-50 cannula was also placed in the femoral vein to allow for intravenous injection of the test peptides. Ten micrograms of the test peptides were injected intravenously in 100 μl of 0.9% NaCl in a random order and the cannula was immediately flushed with 100 μl of 0.9% NaCl. Changes in blood pressure and heart rate were calculated from the electronic record. Intravenous injection of [Iac^1,Ala^22]PACAP38 or [Iac^1,D-Ser^2,Ala^22]PACAP38 produced an increase in the heart rate from 416 bpm to 435 bpm or from 420 bpm to 441 bpm, respectively.
PACAP38 is a directly-acting arterial vasodilator and an indirectly-acting arterial vasoconstrictor. The rapid vasodilator response to intravenous administration of PACAP38 is due to stimulation of PAC1, VPAC1 and VPAC2 receptors in the blood vessels, while the slightly delayed vasoconstrictor response is mainly due to stimulation of PAC1 receptors in the adrenal medulla and the subsequent release of adrenal catecholamines. […] The critical parameter for picking a PACAP38 analog for treating a specific disease is not potency but therapeutic index.

Row | Substance | change in arterial blood pressure | pattern of the arterial blood pressure response (compared with other peptides) | heart rate before intravenous injection [bpm] | heart rate after intravenous injection [bpm] | change in the heart rate (in words) | change in arterial pulse pressure | change in arterial blood pressure (D-Lys38]PACAP38) | change in arterial pulse pressure (D-Lys38]PACAP38) | duration of the arterial blood pressure response (compared with [Iaa1]PACAP38)
1 | Iaa D-Ser Asp Gly Ile Phe Thr Asp Ser Tyr Ser Arg Tyr Arg Lys Gln Met Ala Val Lys Lys Ala Leu Ala Ala Val Leu Gly Lys Arg Tyr Lys Gln Arg Val Lys Asn Lys-NH2 ({Acetyl(2-(4-imidazolyl))}-[dS]DGIFTDSYSRYRKQMAVKKALAAVLGKRYKQRVKNK-NH2; SMILES CC[C@H](C)[C@H](NC(=O)CNC(=O)[C@H](CC(=O)O)NC(=O)[C@@H](CO)NC(=O)Cc1c[nH]cn1)C(=O)N[C@@H](Cc1ccccc1)C(=O)N[C@H](C(=O)N[C@@H](CC(=O)O)C(=O)N[C@@H](CO)C(=O)N[C@@H](Cc1ccc(O)cc1)C(=O)N[C@@H](CO)C(=O)N[C@@H](CCCNC(=N)N)C(=O)N[C@@H](Cc1ccc(O)cc1)C(=O)N[C@@H](CCCNC(=N)N)C(=O)N[C@@H](CCCCN)C(=O)N[C@@H](CCC(N)=O)C(=O)N[C@@H](CCSC)C(=O)N[C@@H](C)C(=O)N[C@H](C(=O)N[C@@H](CCCCN)C(=O)N[C@@H](CCCCN)C(=O)N[C@@H](C)C(=O)N[C@@H](CC(C)C)C(=O)N[C@@H](C)C(=O)N[C@@H](C)C(=O)N[C@H](C(=O)N[C@@H](CC(C)C)C(=O)NCC(=O)N[C@@H](CCCCN)C(=O)N[C@@H](CCCNC(=N)N)C(=O)N[C@@H](Cc1ccc(O)cc1)C(=O)N[C@@H](CCCCN)C(=O)N[C@@H](CCC(N)=O)C(=O)N[C@@H](CCCNC(=N)N)C(=O)N[C@H](C(=O)N[C@@H](CCCCN)C(=O)N[C@@H](CC(N)=O)C(=O)N[C@@H](CCCCN)C(N)=O)C(C)C)C(C)C)C(C)C)[C@@H](C)O) [[Iaa^1,D-Ser^2,Ala^22]PACAP38] | slight increase; also recorded: slightly increased | expected physiological signature of a highly selective PAC1 receptor agonist | 410 | 457 | – | – | – | – | –
2 | Iaa Ser Asp Gly Ile Phe Thr Asp Ser Tyr Ser Arg Tyr Arg Lys Ala Ala Ala Val Lys Lys Tyr Leu Ala Ala Val Leu Gly Lys Arg Tyr Lys Gln Arg Val Lys Asn D-Lys-NH2 ({Acetyl(2-(4-imidazolyl))}-SDGIFTDSYSRYRKAAAVKKYLAAVLGKRYKQRVKN[dK]-NH2; SMILES CC[C@H](C)[C@H](NC(=O)CNC(=O)[C@H](CC(=O)O)NC(=O)[C@H](CO)NC(=O)Cc1c[nH]cn1)C(=O)N[C@@H](Cc1ccccc1)C(=O)N[C@H](C(=O)N[C@@H](CC(=O)O)C(=O)N[C@@H](CO)C(=O)N[C@@H](Cc1ccc(O)cc1)C(=O)N[C@@H](CO)C(=O)N[C@@H](CCCNC(=N)N)C(=O)N[C@@H](Cc1ccc(O)cc1)C(=O)N[C@@H](CCCNC(=N)N)C(=O)N[C@@H](CCCCN)C(=O)N[C@@H](C)C(=O)N[C@@H](C)C(=O)N[C@@H](C)C(=O)N[C@H](C(=O)N[C@@H](CCCCN)C(=O)N[C@@H](CCCCN)C(=O)N[C@@H](Cc1ccc(O)cc1)C(=O)N[C@@H](CC(C)C)C(=O)N[C@@H](C)C(=O)N[C@@H](C)C(=O)N[C@H](C(=O)N[C@@H](CC(C)C)C(=O)NCC(=O)N[C@@H](CCCCN)C(=O)N[C@@H](CCCNC(=N)N)C(=O)N[C@@H](Cc1ccc(O)cc1)C(=O)N[C@@H](CCCCN)C(=O)N[C@@H](CCC(N)=O)C(=O)N[C@@H](CCCNC(=N)N)C(=O)N[C@H](C(=O)N[C@@H](CCCCN)C(=O)N[C@@H](CC(N)=O)C(=O)N[C@H](CCCCN)C(N)=O)C(C)C)C(C)C)C(C)C)[C@@H](C)O) [[Iaa^1,Ala^16,17,D-Lys^38]PACAP38] | large and prolonged decrease | – | – | – | large decrease | large and prolonged decrease | large decrease | large decrease | much longer
3 | Iaa Ser Asp Gly Ile Phe Thr Asp Ser Tyr Ser Arg Tyr Arg Lys Gln Met Ala Val Lys Lys Ala Leu Ala Ala Val Leu Gly Lys Arg Tyr Lys Gln Arg Val Lys Asn Lys-NH2 ({Acetyl(2-(4-imidazolyl))}-SDGIFTDSYSRYRKQMAVKKALAAVLGKRYKQRVKNK-NH2; SMILES CC[C@H](C)[C@H](NC(=O)CNC(=O)[C@H](CC(=O)O)NC(=O)[C@H](CO)NC(=O)Cc1c[nH]cn1)C(=O)N[C@@H](Cc1ccccc1)C(=O)N[C@H](C(=O)N[C@@H](CC(=O)O)C(=O)N[C@@H](CO)C(=O)N[C@@H](Cc1ccc(O)cc1)C(=O)N[C@@H](CO)C(=O)N[C@@H](CCCNC(=N)N)C(=O)N[C@@H](Cc1ccc(O)cc1)C(=O)N[C@@H](CCCNC(=N)N)C(=O)N[C@@H](CCCCN)C(=O)N[C@@H](CCC(N)=O)C(=O)N[C@@H](CCSC)C(=O)N[C@@H](C)C(=O)N[C@H](C(=O)N[C@@H](CCCCN)C(=O)N[C@@H](CCCCN)C(=O)N[C@@H](C)C(=O)N[C@@H](CC(C)C)C(=O)N[C@@H](C)C(=O)N[C@@H](C)C(=O)N[C@H](C(=O)N[C@@H](CC(C)C)C(=O)NCC(=O)N[C@@H](CCCCN)C(=O)N[C@@H](CCCNC(=N)N)C(=O)N[C@@H](Cc1ccc(O)cc1)C(=O)N[C@@H](CCCCN)C(=O)N[C@@H](CCC(N)=O)C(=O)N[C@@H](CCCNC(=N)N)C(=O)N[C@H](C(=O)N[C@@H](CCCCN)C(=O)N[C@@H](CC(N)=O)C(=O)N[C@@H](CCCCN)C(N)=O)C(C)C)C(C)C)C(C)C)[C@@H](C)O) [[Iaa^1,Ala^22]PACAP38] | large decrease | – | 415 | 440 | – | – | – | – | –
4 | Iac D-Ser Asp Gly Ile Phe Thr Asp Ser Tyr Ser Arg Tyr Arg Lys Gln Met Ala Val Lys Lys Ala Leu Ala Ala Val Leu Gly Lys Arg Tyr Lys Gln Arg Val Lys Asn Lys-NH2 (Iac-[dS]DGIFTDSYSRYRKQMAVKKALAAVLGKRYKQRVKNK-NH2) [[Iac^1,D-Ser^2,Ala^22]PACAP38] | – | – | 420 | 441 | – | – | – | – | –
5 | Iac Ser Asp Gly Ile Phe Thr Asp Ser Tyr Ser Arg Tyr Arg Lys Gln Met Ala Val Lys Lys Ala Leu Ala Ala Val Leu Gly Lys Arg Tyr Lys Gln Arg Val Lys Asn Lys-NH2 (Iac-SDGIFTDSYSRYRKQMAVKKALAAVLGKRYKQRVKNK-NH2) [[Iac^1,Ala^22]PACAP38] | – | – | 416 | 435 | – | – | – | – | –
